Laboratory results published in patent publication US12545653B2, “Compound as PPAR agonist and application thereof” (USA Elixiria Biotech Inc., priority 2019, dated 2026).
Where “and” joins values, the source holds several entries; their conditions need not be identical. Identical values can stand only once.

Tests used:
PPARγ = target: T1, PPARγ (Homo sapiens, UniProt P37231); assay: In vitro transcriptional activity of PPARγ gene (PPRE-luciferase reporter, HEK 293 T cells); assay type: cell-based; settings: HEK 293 T cells transfected with PPARγ expression and PPRE-luc plasmids, 21 hours; read-out: EC50 of PPARγ gene activation
T1 construct: expressed in transfected cells; host or cells: HEK 293 T cells
T1 sequence (P37231 1-505): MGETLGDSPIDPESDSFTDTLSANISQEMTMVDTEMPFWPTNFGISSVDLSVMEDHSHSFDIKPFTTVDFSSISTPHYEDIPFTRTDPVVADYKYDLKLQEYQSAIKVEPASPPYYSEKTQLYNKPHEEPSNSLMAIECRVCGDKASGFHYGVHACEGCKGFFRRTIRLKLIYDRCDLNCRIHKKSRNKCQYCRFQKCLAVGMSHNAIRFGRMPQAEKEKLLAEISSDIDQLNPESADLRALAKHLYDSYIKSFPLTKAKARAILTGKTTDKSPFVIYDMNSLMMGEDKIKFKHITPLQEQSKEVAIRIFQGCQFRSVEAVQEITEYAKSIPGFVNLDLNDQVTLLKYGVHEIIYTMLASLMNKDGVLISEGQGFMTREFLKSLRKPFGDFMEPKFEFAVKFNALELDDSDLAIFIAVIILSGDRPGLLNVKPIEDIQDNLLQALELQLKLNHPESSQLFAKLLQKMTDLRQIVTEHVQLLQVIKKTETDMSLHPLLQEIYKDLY

klotho gene = assay: In vivo brain transcriptional activity of klotho gene (RT-PCR of brain mRNA); set-up: species or system mouse; settings: 10 mg/kg body weight/day tail vein; for mRNA level of klotho gene in the brain of the mouse relative to vehicle control group: after 10 days of continuous injection; for fold induction at 10 mg/kg: Mus musculus, iv, 720 h, after 30 days of continuous injection, read-out: mRNA level of klotho gene in the brain of the mouse relative to vehicle control group
Procedure: To verify this hypothesis, adult male Kunming mice were used in the experiments. […] The injection volume is 8 ml/kg body weight. Dimethyl sulfoxide (DMSO) was used as a vehicle control of the compounds. […] The RNA was then reverse-transcribed to the cDNA, and quantified by SYBR Green fluorescence quantitative PCR kit (HaiGene) and a quantitative PCR system (Bio-Rad Min-Opticon Type 2) were used for real-time fluorescent quantitative polymerase chain reaction (RT-PCR). The mouse gene primers were design as follows: • KLOTHO-forward 5′-[…]-3′; • LOTHO-reverse 5′-[…]-3′; • GAPDH-forward 5′-[…]-3′; • GAPDH-reverse 5′-[…]-3′.
Data analysis was performed using the 2^−ΔΔct method. Semi-quantitative values of gene expression were then normalized by the control mean.

APP/PS1 transgenic mice = assay: Alzheimer's disease model, eight-arm radial water maze and brain gene expression; assay type: in vivo, mouse; settings: for number of errors in water maze on the third day: 5 on the first day
[1] = 10 mg/kg body weight/day, 30 days, RT-PCR
[2] = 30 days in food, 10 mg/kg body weight/day (donepezil 3 mg/kg body weight/day)

Structure (SMILES)	EC50 (PPARγ)	mRNA level of klotho gene in the brain of the mouse relative to vehicle control group (klotho gene)	fold induction at 10 mg/kg (klotho gene)	expression level of Bcl-xl gene in cerebral cortex and hippocampus compared with disease control group (APP/PS1 transgenic mice; [1])	expression level of GluN2B gene in cerebral cortex and hippocampus compared with disease control group (APP/PS1 transgenic mice; [1])	expression level of Gng11 gene in cerebral cortex and hippocampus compared with disease control group (APP/PS1 transgenic mice; [1])	expression level of MnSOD gene in cerebral cortex and hippocampus compared with disease control group (APP/PS1 transgenic mice; [1])	expression level of Prx-2 gene in cerebral cortex and hippocampus compared with disease control group (APP/PS1 transgenic mice; [1])	expression level of klotho gene in cerebral cortex and hippocampus compared with disease control group (APP/PS1 transgenic mice; [1]) [folds]	number of errors in water maze on the third day (APP/PS1 transgenic mice; [2])	reduction in the number of errors (reference memory), third day compared with first day (APP/PS1 transgenic mice; 30 days in food, 10 mg/kg body weight/day (donepezil 3 mg/kg body weight/day), eight-arm water maze)
CCc1ccc(CC/C=C/c2ccc3c(c2)C(=O)CC3)cc1 [ELB00824, (E)-6-(4-(4-ethylphenyl)but-1-en-1-yl)-2,3-dihydro-1H-inden-1-one]	< 6.4 µM and 4.7 µM	more than twice	> 5	doubled	doubled	tripled	tripled or quadrupled	tripled or quadrupled	9	~1	significant
CCc1ccc(CC/C=C/c2ccc3c(c2)OCCC3=O)cc1 [ELB001045, (E)-7-(4-(4-ethylphenyl)but-1-en-1-yl)chroman-4-one]	< 6.4 µM and 3.5 µM	more than twice	> 5							comparable to that of ELB00824	
CCc1ccc(CC/C=C/c2ccc3c(c2)C(=O)COC3)cc1 [ELB001046, (E)-6-(4-(4-ethylphenyl)but-1-en-1-yl)isochroman-4-one]	< 6.4 µM	more than twice	> 5							comparable to that of ELB00824	
CCc1ccc(OC/C=C/c2ccc3c(c2)C(=O)CC3)cc1 [ELB001115, (E)-6-(3-(4-ethylphenoxy)prop-1-en-1-yl)-2,3-dihydro-1H-inden-1-one]	< 6.4 µM and 4.8 µM	more than twice	> 5							comparable to that of ELB00824	
COc1ccc(CC/C=C/c2ccc3c(c2)C(=O)CC3)cc1 [ELB001116, (E)-6-(4-(4-methoxyphenyl)but-1-en-1-yl)-2,3-dihydro-1H-inden-1-one]	< 6.4 µM	more than twice	> 5							comparable to that of ELB00824	
CCc1ccc(CC/C=C/c2ccc3c(c2)C(=O)CC3)nc1 [ELB001125, (E)-6-(4-(5-ethylpyridin-2-yl)but-1-en-1-yl)-2,3-dihydro-1H-inden-1-one]	< 6.4 µM	more than twice	> 5							comparable to that of ELB00824	
